Reference: PubChem BioAssay (NCI)
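Step 1: Grow cells in 96-well plates. Step 2: Expose to compound for 48 hours at 5 concentrations. Step 3: Interpolate endpoints linearly; if unreached, use highest concentration. TGI: concentration producing complete growth inhibition.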

Experiments:
Assay in all cases: growth of human tumour cells (NCI), 48 h
SNB-75 CNS = system: SNB-75 CNS
U251 CNS = system: U251 CNS
MDA-MB-231 breast = system: MDA-MB-231 breast
BT-549 breast = system: BT-549 breast
MDA-MB-435 = system: MDA-MB-435
HT29 colon = system: HT29 colon
KM12 colon = system: KM12 colon
HL-60(TB) leukemia = system: HL-60(TB) leukemia
OVCAR-5 ovarian = system: OVCAR-5 ovarian
UO-31 renal = system: UO-31 renal

| SMILES | TGI (SNB-75 CNS) | TGI (U251 CNS) | TGI (MDA-MB-231 breast) | TGI (BT-549 breast) | TGI (MDA-MB-435) | TGI (HT29 colon) | TGI (KM12 colon) | TGI (HL-60(TB) leukemia) | TGI (OVCAR-5 ovarian) | TGI (UO-31 renal) |
| --- | --- | --- | --- | --- | --- | --- | --- | --- | --- | --- |
| COc1cccc(/C=N/n2c(Cc3ccc(Cl)cc3)n[nH]c2=O)c1 | 25.3 µM | 55.2 µM | 48.2 µM | 57.1 µM | > 100 µM | 34 µM | > 100 µM | > 100 µM | > 100 µM | > 100 µM |
| CC(C)(CN1CCCCC1)C(=O)/C=C/c1c(Cl)cccc1Cl | 2.38 µM | 2.8 µM | 2.15 µM | 4.06 µM | 2.85 µM | 2.89 µM | 2.36 µM | 4.37 µM | 2.97 µM | 2.27 µM |
